Test results as given in patent publication US12447186B2, “Traditional Chinese medicine compound composition with anti-anxiety effect and preparation method and applications thereof” (Chenland Nutritionals Inc., priority 2020, dated 2025).

How the values were obtained:
mice [1] = assay: Open field test; format: in vivo; settings: 6 min, Diazepam 2 mg/kg
Method: (§1) After the mice arrived, they were acclimatized for a week to enter the experiment. There were 12 mice in each group.
(§2) The normal group mice were gavaged with the same volume of purified water, and the gavage doses of other groups were illustrated in the results table section below. The mice were gavaged every morning at fixed time (9:00) with a gavage volume of 0.1 ml·10 g^−1. the administration lasted for one month, and behavioral assays were performed 1 h after the last gavage.
The test was performed inside an open field box with 50 cm long, 50 cm wide, and 50 cm deep. The bottom of the open field box was equally divided into nine squares, with the right middle area being the central area and the remaining area being the peripheral area. The bottom and surrounding of the open field box were all white. The test was performed in a quiet weak red light environment. At the beginning, the mice were placed in the center of the open field box, and the activity within 6 minutes was observed. Total running distance, running distance in central area and number of entries into central area of the mice were recorded.

mice [2] = assay: Light-dark box test; format: in vivo; settings: gavage one month, 5 min, Diazepam 2 mg/kg
Method: as §1, §2
The light and dark box is composed of an integral box which is divided into two compartments (light area and dark area) of the same size (L×w×H=25 cm×25 cm×30 cm) by a middle gate (6.5 cm×6.5 cm). The light area is illuminated by white light, and the dark area is illuminated by red light. At the beginning of the test, each mouse was placed in the center of the light area facing the partition wall, and the middle gate was removed. Once four claws of one mouse entered the compartment, it was recorded as one entry. Supermaze software was used to record the distance in light area, retention time in light area and number of entries into light area in 5 minutes.

## CN1C(=O)CN=C(c2ccccc2)c2cc(Cl)ccc21 [Diazepam]
Mice [1]; gavage daily for one month, 1 h after last gavage
  Total running distance: 29927 ± 2380
Mice [1]; gavage one month
  Number of entries into central area: 12.78 ± 1.498
  Running distance in central area: 2168 ± 218.6
Mice [2]
  Distance in light area: 18141 ± 1011
  Number of entries into light area: 18.92 ± 1.540
